Assays:
Cyp1b1 mRNA in liver = test: Cyp1b1 gene expression in liver (real-time PCR); format: in vivo, female C57BL/6 mice; conditions: for BMR20TCDD Liver Cyp1b1 mRNA: 3 days after single oral dose; for REP Liver Cyp1b1 mRNA: relative to TCDD; for Effect on hepatic Cyp1b1 mRNA expression: single oral dose, day 3
Method: (§1) Animals. Eight-week-old female C57BL/6 mice (Harlan laboratories, Venray, the Netherlands) were randomly assigned to treatment groups (six animals per group) and allowed to acclimate for 1.5 weeks. The animals were housed in groups in standard cages and conditions (23 ± 2°C, 50–60% relative humidity, 12-hr dark/light cycle) with free access to food and water. Mice received a single dose of test compound by oral gavage at a dosing volume of 10 mL/kg body weight (BW). Mice treated with corn oil vehicle (10 mL/kg BW) served as controls. For each congener, five different doses were administered, ranging from 0.5–100 μg/kg BW (TCDD) to 5,000–500,000 µg/kg BW (PCB-153). Detailed information on doses is provided in Supplemental Material, Table S1 (http://dx.doi.org/10.1289/ehp.1206336). On day 3 after dosing, animals were euthanized by CO2/O2 asphyxiation, and blood was immediately collected from the abdominal aorta. The liver, thymus, spleen, and adipose tissue were removed, weighed (liver, thymus, and spleen), snap frozen, and stored at –80°C. All animal treatments were performed with permission of the Animal Ethical Committee (DEC Utrecht) and performed according to the [Law on Animal Experiments (1977)]. Animals were treated humanely and with regard for alleviation of suffering.
RNA isolation and quantitative real-time polymerase chain reaction (PCR). Total RNA was isolated from liver and PBLs using a QIAGEN RNeasy kit (QIAGEN). Purity and concentration of the isolated RNA was determined by measuring the absorbance ratio at 260/280 nm and 230/260 nm with a Nanodrop 2000 spectrophotometer (Thermo Scientific, Asheville, NC, USA). RNA was reverse transcribed to complementary DNA (cDNA) using the iScript cDNA synthesis Kit (Bio-Rad, Veenendaal, the Netherlands). Quantitative real-time PCR analyses were performed using the iQ Real-Time PCR Detection System with SYBR green (Bio-Rad). Amplification reactions were set up with […] containing 12.5 μL iQ SYBR Green Supermix (Bio-rad), 0.5 μL distilled H2O, 1 μL (10 μM) forward primer, 1 μL (10 μM) reverse primer, and 10 μL first strand cDNA (10X diluted). Primer sequences were as follows: Cyp1a1: forward-5´-GGTTAACCATGACCGGGAACT-3´ and reverse-5´-TGCCCAAACCAAAGAGAGTGA-3´ ([Schulz et al. 2012]); Cyp1a2: forward-5´-ACATTCCCAAGGAGCGCTGTATCT-3´ and reverse-5´-GTCGATGGCCGAGTTGTTATTGGT-3´ ([Flaveny et al. 2010]); Cyp1b1: forward-5´-GTGGCTGCTCATCCTCTTTACC-3´ and reverse-5´-CCCACAACCTGGTCCAACTC-3´ ([Berge et al. 2004]); β-actin: forward-5´-ATGCTCCCCGGGCTGTAT-3´ and reverse-5´-CATAGGAGTCCTTCTGACCCATTC-3´ ([Schulz et al. 2012]). All primers were run through the National Center for Biotechnology Information Primer-BLAST database (http://www.ncbi.nlm.nih.gov/tools/primer-blast/) to confirm specificity and validate for optimal annealing temperature (60°C for all primers) and efficiency. The efficiency of all primer pairs was 98–102% (tested at 60°C). The following program was used for denaturation and amplification of cDNA: 3 min at 95°C, followed by 40 cycles of 15 sec at 95°C and 45 sec at 60°C. Gene expression for each sample was expressed as threshold cycle (Ct), normalized to the reference gene β-actin (ΔCt). We calculated fold induction relative to the control group.
(§2) Data analysis. We obtained concentration–response curves using a sigmoidal dose–response nonlinear regression curve fit with variable slope (GraphPad Prism 6.01; GraphPad Software Inc., San Diego, CA, USA):
(§3) In this Hill equation, y is the dependent variable (EROD activity or fold induction of mRNA levels), x the independent variable (administered or systemic dose), E0 is the estimated background response level, Emax is the maximum response, b is the estimated median effective concentration (EC50), and n is the shaping parameter of the Hill curve.
(§4) Using the congener-specific BMR20TCDD concentration, REPs were calculated relatively to TCDD: […]

[1] = system: hepatic CYP1A1 activity (ethoxyresorufin-O-deethylase, EROD); test: Hepatic EROD activity in hepatic microsomal fractions after single oral dose; format: in vivo, female C57BL/6 mice; conditions: for BMR20TCDD Liver EROD activity: 3 days after single oral dose; for REP Liver EROD activity: relative to TCDD
Method: as §1
EROD activity. We determined hepatic CYP1A1 activity using ethoxyresorufin-O-deethylase (EROD) activity in hepatic microsomal fractions as described by [Schulz et al. (2012)].
as §2, §3, §4

[2] = dose metric Adm dose (µg/kg BW)
[3] = dose metric Syst adipose (ng/g lipid)
[4] = dose metric Syst liver (ng/g lipid)
[5] = dose metric Syst liver (ng/g liver)
[6] = dose metric Syst plasma (ng/g lipid)

SMILES | BMR20TCDD Liver Cyp1b1 mRNA (Cyp1b1 mRNA in liver; dose metric Adm dose) | BMR20TCDD Liver Cyp1b1 mRNA (Cyp1b1 mRNA in liver; dose metric Syst adipose) | BMR20TCDD Liver Cyp1b1 mRNA (Cyp1b1 mRNA in liver; dose metric Syst plasma) | REP Liver Cyp1b1 mRNA (Cyp1b1 mRNA in liver; [2]) | REP Liver Cyp1b1 mRNA (Cyp1b1 mRNA in liver; [3]) | REP Liver Cyp1b1 mRNA (Cyp1b1 mRNA in liver; [4]) | REP Liver Cyp1b1 mRNA (Cyp1b1 mRNA in liver; [5]) | REP Liver Cyp1b1 mRNA (Cyp1b1 mRNA in liver; [6]) | Effect on hepatic Cyp1b1 mRNA expression (Cyp1b1 mRNA in liver) | BMR20TCDD Liver EROD activity ([1]; dose metric Adm dose) | BMR20TCDD Liver EROD activity ([1]; dose metric Syst adipose) | BMR20TCDD Liver EROD activity ([1]; dose metric Syst plasma) | REP Liver EROD activity [1, 2] | REP Liver EROD activity [1, 3] | REP Liver EROD activity [1, 4] | REP Liver EROD activity [1, 5] | REP Liver EROD activity [1, 6]
Clc1cc2oc3c(Cl)c(Cl)c(Cl)cc3c2cc1Cl [Congener 4-PeCDF, 2,3,4,7,8-pentachlorodibenzofuran] | 150 µg/kg BW | 461 ng/g lipid | 44.6 ng/g lipid | 0.02 | 0.02 | 0.01 | 0.02 | 0.3 | dose-dependently increased | – | – | – | – | – | – | – | –
Clc1ccc(-c2cc(Cl)c(Cl)cc2Cl)cc1Cl [PCB-118, 2,3´,4,4´,5-pentachlorobiphenyl] | – | – | – | – | – | – | – | – | – | 55,259 µg/kg BW | 359,114 ng/g lipid | 311,118 ng/g lipid | 0.000005 | 0.000003 | 0.00006 | 0.00006 | 0.000004
Clc1ccc(-c2cc(Cl)c(Cl)c(Cl)c2)cc1Cl [PCB-126, 3,3´,4,4´,5-pentachlorobiphenyl] | – | – | – | – | – | – | – | – | did not induce | 29.3 µg/kg BW | 72.7 ng/g lipid | 72.3 ng/g lipid | 0.01 | 0.02 | 0.003 | 0.004 | 0.02
Clc1ccc(-c2cc(Cl)c(Cl)c(Cl)c2Cl)cc1Cl [PCB-156, 2,3,3´,4,4´,5-hexachlorobiphenyl] | 95,664 µg/kg BW | 745,126 ng/g lipid | 553,459 ng/g lipid | 0.00004 | 0.00001 | 0.0003 | 0.0004 | 0.00002 | dose-dependently increased | 15,664 µg/kg BW | 82,483 ng/g lipid | 98,188 ng/g lipid | 0.00002 | 0.00001 | 0.0002 | 0.0002 | 0.00001
Clc1cc2c(cc1Cl)Oc1c(cc(Cl)c(Cl)c1Cl)O2 [PeCDD, 1,2,3,7,8-pentachlorodibenzodioxin] | 10.1 µg/kg BW | 19.4 ng/g lipid | 18.5 ng/g lipid | 0.4 | 0.5 | 0.2 | 0.3 | 0.6 | dose-dependently increased | 0.54 µg/kg BW | 1.25 ng/g lipid | 2.31 ng/g lipid | 0.5 | 1 | 0.3 | 0.3 | 0.6
Clc1cc2c(cc1Cl)Oc1cc(Cl)c(Cl)cc1O2 [TCDD, 2,3,7,8-tetrachlorodibenzodioxin, reference compound] | 3.55 µg/kg BW | 10.3 ng/g lipid | 11.6 ng/g lipid | 1 | 1 | 1 | 1 | 1 | dose-dependently increased | 0.29 µg/kg BW | 1.23 ng/g lipid | 1.38 ng/g lipid | 1 | 1 | 1 | 1 | 1

From PMC3702004, “Comparison of Intake and Systemic Relative Effect Potencies of Dioxin-like Compounds in Female Mice after a Single Oral Dose” (Environmental Health Perspectives, 2013)
